{
  "source": "patent US20140171495A1",
  "about": "“STABLE PHARMACEUTICAL FORMULATION OF CABAZITAXEL” (Yung Shin Pharm.Ind. Co., Ltd., priority 2012, published 2014)",
  "origin": "cited, not measured here",
  "data": [
    {"smiles": "CO[C@H]1C(=O)[C@]2(C)[C@@H](OC)C[C@H]3OC[C@@]3(OC(C)=O)[C@H]2[C@H](OC(=O)c2ccccc2)[C@]2(O)C[C@H](OC(=O)[C@H](O)[C@@H](NC(=O)OC(C)(C)C)c3ccccc3)C(C)=C1C2(C)C", "note": "[Cabazitaxel, (2α,5β,7β,10β,13α)-4-acetoxy-13-({(2R,3S)-3[(tertbutoxycarbonyl)amino]-2-hydroxy-3-phenylpropanoyl}oxy)-1-hydroxy-7,10-dimethoxy-9-oxo-5,20-epoxytax-11-en-2-yl benzoate-propan-2-one(1:1)]", "values": [
      {"measurement": "solubility in alcohol", "setting": "alcohol", "value": "soluble"},
      {"measurement": "solubility in water", "setting": "water", "value": "practically insoluble"}
    ]}
  ]
}
